Experimental data taken from patent publication US20230089867A1, “CYCLIC PENTAMER COMPOUNDS AS PROPROTEIN CONVERTASE SUBTILISIN/KEXIN TYPE 9 (PCSK9) INHIBITORS FOR THE TREATMENT OF METABOLIC DISORDER” (Novartis AG, priority 2018, published 2023).
Blank lines part the entries; values can stand above or below the compound they belong to.

Target: human PCSK9 (Homo sapiens, UniProt Q8NBP7)
Assay: PCSK9 ligand binding TR-FRET assay (interference with binding of human PCSK9 to human LDLR)
Conditions: for Max % inhibition: PCSK9 FRET assay, efficacy (Amax), 100% = 1 uM unlabeled human PCSK9, 0% = DMSO; for IC50: TR-FRET, human PCSK9 Alexa Fluor 647 / human LDLR extracellular domain-Europium Kryptate, read-out: PCSK9 FRET Assay IC50
In short: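 Threefold compound dilutions were pre-incubated 30 min with PCSK9, after which 4 nM Europium Kryptate-tagged human LDLR ectodomain was added for a further 2 h.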

Sequence of human PCSK9 (Q8NBP7 153-692): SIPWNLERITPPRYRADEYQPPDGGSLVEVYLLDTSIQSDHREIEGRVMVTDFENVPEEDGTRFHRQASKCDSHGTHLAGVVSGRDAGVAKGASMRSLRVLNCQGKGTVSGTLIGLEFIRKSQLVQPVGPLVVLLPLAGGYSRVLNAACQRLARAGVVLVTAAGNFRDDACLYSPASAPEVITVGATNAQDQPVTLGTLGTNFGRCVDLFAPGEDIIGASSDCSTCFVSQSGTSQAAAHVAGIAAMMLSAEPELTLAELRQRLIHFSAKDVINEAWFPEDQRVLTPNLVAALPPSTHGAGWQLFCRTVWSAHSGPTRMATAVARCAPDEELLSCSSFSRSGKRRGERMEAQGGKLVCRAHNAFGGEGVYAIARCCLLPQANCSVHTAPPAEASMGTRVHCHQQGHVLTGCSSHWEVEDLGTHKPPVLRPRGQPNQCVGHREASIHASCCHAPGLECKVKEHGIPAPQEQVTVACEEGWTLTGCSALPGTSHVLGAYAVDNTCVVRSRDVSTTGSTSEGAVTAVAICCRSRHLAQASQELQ
Sequence of human PCSK9 (Q8NBP7 31-152 partner limits assumed): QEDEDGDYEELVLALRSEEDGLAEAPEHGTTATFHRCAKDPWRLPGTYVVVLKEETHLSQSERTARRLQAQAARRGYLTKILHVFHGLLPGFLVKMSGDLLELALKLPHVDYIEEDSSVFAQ

SMILES: COC[C@H]1C(=O)N(C)[C@@H](Cc2ccc(Cl)cc2)CC(=O)NC[C@H](C)N(C)C(=O)[C@H](Cc2ccccc2)CC(=O)N(Cc2ccc(Cl)cc2Oc2ccc(-c3cnc(CN(C)C)n3C)cc2)[C@H]2CC(=O)N1C2=O [Compound 13, (2S,5S,10S,13R,17S)-13-benzyl-16-(4-chloro-2-(4-(2-((dimethylamino)methyl)-1-methyl-1H-imidazol-5-yl)phenoxy)benzyl)-5-(4-chlorobenzyl)-2-(methoxymethyl)-4,10,11-trimethyl-1,4,8,11,16-pentaazabicyclo[15.2.1]icosane-3,7,12,15,19,20-hexaone]
Max % inhibition: 101.32%
IC50: 106 nM

SMILES: COC[C@@H]1NC(=O)[C@H](C)N(Cc2ccc(Cl)cc2Oc2ccc(-c3cnc(OC)n3C)cc2)C(=O)C[C@@H](Cc2ccccc2)C(=O)N(C)[C@@H](C)CNC(=O)C[C@H](Cc2ccc(Cl)cc2)N(C)C1=O [Compound 197, (2S,5S,8S,13S,16R)-16-benzyl-1-(4-chloro-2-(4-(2-methoxy-1-methyl-1H-imidazol-5-yl)phenoxy)benzyl)-8-(4-chlorobenzyl)-5-(methoxymethyl)-2,7,13,14-tetramethyl-1,4,7,11,14-pentaazacyclooctadecane-3,6,10,15,18-pentaone]
Max % inhibition: 72.51%
IC50: 17.4 nM

SMILES: COC[C@@H]1NC(=O)[C@H](CCCN2CCOCC2)N(Cc2ccc(Cl)cc2Oc2ccc(-c3cnc(CN(C)C)n3C)cc2)C(=O)C[C@@H](Cc2ccccc2)C(=O)N(C)[C@@H](C)CNC(=O)C[C@H](Cc2ccc(Cl)cc2)N(C)C1=O [Compound 158, (2S,5S,8S,13S,16R)-16-benzyl-1-(4-chloro-2-(4-(2-((dimethylamino)methyl)-1-methyl-1H-imidazol-5-yl)phenoxy)benzyl)-8-(4-chlorobenzyl)-5-(methoxymethyl)-7,13,14-trimethyl-2-(3-morpholinopropyl)-1,4,7,11,14-pentaazacyclooctadecane-3,6,10,15,18-pentaone]
Max % inhibition: 98.98%
IC50: 1.4 nM

SMILES: COC[C@@H]1NC(=O)[C@H](C)N(Cc2c(Oc3ccc(-c4cnc(CN(C)C)n4C)cc3)cccc2OC(F)F)C(=O)CCC(=O)N(C)[C@H]2CCCC[C@@H]2NC(=O)C[C@H](Cc2ccc(Cl)cc2)N(C)C1=O [Compound 196, (4S,7S,10S,16aS,20aS)-4-(4-chlorobenzyl)-11-(2-(difluoromethoxy)-6-(4-(2-((dimethylamino)methyl)-1-methyl-1H-imidazol-5-yl)phenoxy)benzyl)-7-(methoxymethyl)-5,10,16-trimethylhexadecahydrobenzo[l][1,4,7,11,14]pentaazacyclooctadecine-2,6,9,12,15(3H)-pentaone]
Max % inhibition: 97.92%
IC50: 3 nM

SMILES: COC[C@@H]1NC(=O)[C@H](C)N(Cc2ccc(Cl)cc2Oc2ccc(-c3cnc4n3CCNC4)cc2)C(=O)C[C@@H](Cc2ccccc2)C(=O)N(C)[C@@H](C)CNC(=O)C[C@H](Cc2ccc(Cl)cc2)N(C)C1=O.O=C(O)C(F)(F)F [Compound 121, (2S,5S,8S,13S,16R)-16-benzyl-1-(4-chloro-2-(4-(5,6,7,8-tetrahydroimidazo[1,2-a]pyrazin-3-yl)phenoxy)benzyl)-8-(4-chlorobenzyl)-5-(methoxymethyl)-2,7,13,14-tetramethyl-1,4,7,11,14-pentaazacyclooctadecane-3,6,10,15,18-pentaone trifluoroacetate]
Max % inhibition: 59.89%
IC50: 2.8 nM

SMILES: COC[C@@H]1NC(=O)[C@H](C)N(Cc2c(OCC(F)(F)F)cc(Cl)cc2Oc2ccc(-c3cnc(CN4CCCC4)n3C)cc2)C(=O)C[C@@H](C)C(=O)N(C)[C@@H](C)CNC(=O)C[C@H](Cc2ccc(Cl)cc2)N(C)C1=O [Compound 7, (2S,5S,8S,13S,16R)-1-(4-chloro-2-(4-(1-methyl-2-(pyrrolidin-1-ylmethyl)-1H-imidazol-5-yl)phenoxy)-6-(2,2,2-trifluoroethoxy)benzyl)-8-(4-chlorobenzyl)-5-(methoxymethyl)-2,7,13,14,16-pentamethyl-1,4,7,11,14-pentaazacyclooctadecane-3,6,10,15,18-pentaone]
Max % inhibition: 93.00%
IC50: 9.9 nM

SMILES: COC[C@@H]1NC(=O)[C@H](C)N(Cc2ccc(Cl)cc2Oc2cc(F)c(-c3cnc(CN4CCCC4)n3C)c(F)c2)C(=O)C[C@@H](Cc2ccccc2)C(=O)N(C)[C@@H](C)CNC(=O)C[C@H](Cc2ccc(Cl)cc2)N(C)C1=O [Compound 51, (2S,5S,8S,13S,16R)-16-benzyl-1-(4-chloro-2-(3,5-difluoro-4-(1-methyl-2-(pyrrolidin-1-ylmethyl)-1H-imidazol-5-yl)phenoxy)benzyl)-8-(4-chlorobenzyl)-5-(methoxymethyl)-2,7,13,14-tetramethyl-1,4,7,11,14-pentaazacyclooctadecane-3,6,10,15,18-pentaone]
Max % inhibition: 94.86%
IC50: 0.5 nM

SMILES: COC[C@@H]1NC(=O)[C@H](C)N(Cc2ccc(Cl)cc2Oc2ccc(-n3cnc(CN4CCCC4)c3C)cc2)C(=O)C[C@@H](Cc2ccccc2)C(=O)N(C)[C@@H](C)CNC(=O)C[C@H](Cc2ccc(Cl)cc2)N(C)C1=O [Compound 259, (2S,5S,8S,13S,16R)-16-benzyl-1-(4-chloro-2-(4-(5-methyl-4-(pyrrolidin-1-ylmethyl)-1H-imidazol-1-yl)phenoxy)benzyl)-8-(4-chlorobenzyl)-5-(methoxymethyl)-2,7,13,14-tetramethyl-1,4,7,11,14-pentaazacyclooctadecane-3,6,10,15,18-pentaone]
Max % inhibition: 108.15%
IC50: 3.2 nM

SMILES: CCn1c(-c2ccc(Oc3cc(Cl)ccc3CN3C(=O)C[C@@H](Cc4ccccc4)C(=O)N(C)[C@@H](C)CNC(=O)C[C@H](Cc4ccc(Cl)cc4)N(C)C(=O)[C@H](COC)NC(=O)[C@@H]3C)cc2)cnc1CN1CCCC1 [Compound 300, (2S,5S,8S,13S,16R)-16-benzyl-1-(4-chloro-2-(4-(1-ethyl-2-(pyrrolidin-1-ylmethyl)-1H-imidazol-5-yl)phenoxy)benzyl)-8-(4-chlorobenzyl)-5-(methoxymethyl)-2,7,13,14-tetramethyl-1,4,7,11,14-pentaazacyclooctadecane-3,6,10,15,18-pentaone]
Max % inhibition: 80.60%
IC50: 2.1 nM

SMILES: COC[C@@H]1NC(=O)[C@H](CC(=O)O)N(Cc2ccc(Cl)cc2Oc2ccc(-c3cnc(CN(C)C)n3C)cc2)C(=O)C[C@@H](Cc2ccccc2)C(=O)N(C)[C@@H](C)CNC(=O)C[C@H](Cc2ccc(Cl)cc2)N(C)C1=O [Compound 82, 2-((2S,5S,8S,13S,16R)-16-benzyl-1-(4-chloro-2-(4-(2-((dimethylamino)methyl)-1-methyl-1H-imidazol-5-yl)phenoxy)benzyl)-8-(4-chlorobenzyl)-5-(methoxymethyl)-7,13,14-trimethyl-3,6,10,15,18-pentaoxo-1,4,7,11,14-pentaazacyclooctadecan-2-yl)acetic acid]
Max % inhibition: 99.99%
IC50: 1.3 nM

Further lines, results first:

Max % inhibition: 84.24%
IC50: 0.4 nM
SMILES: COC[C@@H]1NC(=O)[C@H](CCN(C)C)N(Cc2ccc(Cl)cc2Oc2ccc(-c3cnc(CN(C)C)n3C)cc2)C(=O)C[C@@H](Cc2ccccn2)C(=O)N(C)[C@H]2CCCC[C@@H]2NC(=O)C[C@H](Cc2ccc(Cl)cc2)N(C)C1=O [Compound 250, (4S,7S,10S,14R,16aS,20aS)-11-(4-chloro-2-(4-(2-((dimethylamino)methyl)-1-methyl-1H-imidazol-5-yl)phenoxy)benzyl)-4-(4-chlorobenzyl)-10-(2-(dimethylamino)ethyl)-7-(methoxymethyl)-5,16-dimethyl-14-(pyridin-2-ylmethyl)hexadecahydrobenzo[l][1,4,7,11,14]pentaazacyclooctadecine-2,6,9,12,15(3H)-pentaone]

Max % inhibition: 76.79%
IC50: 5.3 nM
SMILES: CCC[C@@H]1CC(=O)N(Cc2ccc(Cl)cc2Oc2ccc(-c3cnc(CN(C)C)n3C)cc2)[C@@H](C)C(=O)N[C@@H](COC)C(=O)N(C)[C@@H](Cc2ccc(Cl)cc2)CC(=O)N[C@H]2CCCC[C@@H]2N(C)C1=O [Compound 263, (4S,7S,10S,14R,16aS,20aS)-11-(4-chloro-2-(4-(2-((dimethylamino)methyl)-1-methyl-1H-imidazol-5-yl)phenoxy)benzyl)-4-(4-chlorobenzyl)-7-(methoxymethyl)-5,10,16-trimethyl-14-propylhexadecahydrobenzo[l][1,4,7,11,14]pentaazacyclooctadecine-2,6,9,12,15(3H)-pentaone]

Max % inhibition: 93.92%
IC50: 8.4 nM
SMILES: COC[C@@H]1NC(=O)C(C)N(Cc2ccc(F)cc2Oc2ccc(-c3cnc(CN(C)C)n3C)cc2)C(=O)C[C@@H](Cc2ccccc2)C(=O)N(C)[C@H]2CCCC[C@@H]2NC(=O)C[C@H](Cc2ccc(Cl)cc2)N(C)C1=O (stereo partly drawn) [Compound 228, (4S,7S,14R,16aS,20aS)-14-benzyl-4-(4-chlorobenzyl)-11-(2-(4-(2-((dimethylamino)methyl)-1-methyl-1H-imidazol-5-yl)phenoxy)-4-fluorobenzyl)-7-(methoxymethyl)-5,10,16-trimethylhexadecahydrobenzo[l][1,4,7,11,14]pentaazacyclooctadecine-2,6,9,12,15(3H)-pentaone]

Max % inhibition: 84.80%
IC50: 73.3 nM
SMILES: CC[C@H]1C(=O)N[C@@H](COC)C(=O)N(C)[C@@H](Cc2ccc(Cl)cc2)CC(=O)NC[C@H](C)N(C)C(=O)[C@H](C)CC(=O)N1Cc1ccc(Cl)cc1Oc1ccc(-c2cnc(CN(C)C)n2C)cc1 [Compound 173, (2S,5S,8S,13S,16R)-1-(4-chloro-2-(4-(2-((dimethylamino)methyl)-1-methyl-1H-imidazol-5-yl)phenoxy)benzyl)-8-(4-chlorobenzyl)-2-ethyl-5-(methoxymethyl)-7,13,14,16-tetramethyl-1,4,7,11,14-pentaazacyclooctadecane-3,6,10,15,18-pentaone]
